The supplement of paper PMC10307832

What was measured:
Assay in all cases: relative viability (nuclei count vs DMSO), 5 days (fraction); higher = more cells survive
Tivantinib + AZD7762 = compound: O=C1NC(=O)[C@@H](c2cn3c4c(cccc24)CCC3)[C@@H]1c1c[nH]c2ccccc12 [Tivantinib] + NC(=O)Nc1cc(-c2cccc(F)c2)sc1C(=O)N[C@H]1CCCNC1 [AZD7762] (partner 0.2 µM)
How it was run: (§1)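 Medians of duplicate plates are given as relative viability. That measure is the nuclei count in treated wells divided by the count in vehicle wells. Counts were taken on 4× images of lung cancer cell lines in 1536-well plates, 5 days after pin-tool dosing the day after seeding with one drug alone or a fixed anchor-drug dose plus five library-drug doses (not always all listed) in √10 steps.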

Crenolanib + Luminespib = compound: CC1(COc2ccc3c(c2)ncn3-c2ccc3cccc(N4CCC(N)CC4)c3n2)COC1 [Crenolanib] + CCNC(=O)c1noc(-c2cc(C(C)C)c(O)cc2O)c1-c1ccc(CN2CCOCC2)cc1 [Luminespib] (partner 0.01 µM)
How it was run: as §1

Tivantinib + Pictilisib = compound: O=C1NC(=O)[C@@H](c2cn3c4c(cccc24)CCC3)[C@@H]1c1c[nH]c2ccccc12 [Tivantinib] + CS(=O)(=O)N1CCN(Cc2cc3nc(-c4cccc5[nH]ncc45)nc(N4CCOCC4)c3s2)CC1 [Pictilisib] (partner 1 µM)
How it was run: as §1

Crenolanib + Olaparib = compound: CC1(COc2ccc3c(c2)ncn3-c2ccc3cccc(N4CCC(N)CC4)c3n2)COC1 [Crenolanib] + O=C(c1cc(Cc2n[nH]c(=O)c3ccccc23)ccc1F)N1CCN(C(=O)C2CC2)CC1 [Olaparib] (partner 8 µM)
How it was run: as §1

Cell Line	relative viability (Tivantinib + AZD7762; first compound 0.01 µM)	relative viability (Tivantinib + AZD7762; first compound 0.03162 µM)	relative viability (Tivantinib + AZD7762; first compound 0.1 µM)	relative viability (Crenolanib + Luminespib; first compound 0.01 µM)	relative viability (Crenolanib + Luminespib; first compound 0.03162 µM)	relative viability (Crenolanib + Luminespib; first compound 0.1 µM)	relative viability (Crenolanib + Luminespib; first compound 0.3162 µM)	relative viability (Crenolanib + Luminespib; first compound 1 µM)	relative viability (Tivantinib + Pictilisib; first compound 0.01 µM)	relative viability (Tivantinib + Pictilisib; first compound 0.03162 µM)	relative viability (Tivantinib + Pictilisib; first compound 0.1 µM)	relative viability (Tivantinib + Pictilisib; first compound 0.3162 µM)	relative viability (Crenolanib + Olaparib; first compound 0.01 µM)	relative viability (Crenolanib + Olaparib; first compound 0.03162 µM)	relative viability (Crenolanib + Olaparib; first compound 0.1 µM)	relative viability (Crenolanib + Olaparib; first compound 0.3162 µM)	relative viability (Crenolanib + Olaparib; first compound 1 µM)	relative viability (Tivantinib + AZD7762; first compound 0.3162 µM)
HCC-827	0.186	0.238	0.297	0.7	0.607	0.617	0.568	0.6	1.15	1.01	0.983	0.415	0.702	0.659	0.655	0.634	0.677	
LC-2-ad	0.776	0.681	0.817	1.07	0.929	0.955	0.963	0.756	0.462	0.354	0.479	0.511	0.65	0.704	0.728	0.74	0.65	0.758
NCI-H441	1.04	1.22	1.11	0.387	0.393	0.333	0.433	0.359	0.499	0.451	0.601	0.242	0.602	0.524	0.608	0.56	0.535	1.03
NCI-H322M	0.613	0.419	0.571	0.949	0.88	0.752	0.769	0.802	0.505	0.481	0.467	0.4	0.741	0.779	0.651	0.806	0.795	
COR-L23				0.709	0.679	0.63	0.848	0.574	0.809	0.63	0.762	0.98	0.321	0.342	0.307	0.347	0.291	
COR-L 105				1.12	0.973	0.743	0.859	0.732	0.401	0.335	0.389	0.406	0.729	0.641	0.643	0.751	0.584	
SK-LU-1				0.205	0.246	0.217	0.208	0.211	0.669	0.524	0.614	0.548	0.547	0.491	0.331	0.7	0.534	
NCI-H1299									0.9	0.857	0.695	0.807	0.965	0.921	0.916	0.978	0.935	
NCI-H661				0.939	0.88	0.893	0.958	0.959	0.472	0.394	0.387	0.269	0.719	0.803	0.681	0.811	0.81	
NCI-H1703	0.159	0.152	0.114						0.215	0.24	0.236	0.228	0.376	0.383	0.175	0.242	0.192	0.124
NCI-H2228				0.137	0.15	0.105	0.193	0.228	0.405	0.345	0.458	0.413	0.76	0.833	0.684	1.13	0.686	
